Where a SMILES comes first, the peptide text is derived from it. The star is where a group is joined. Cbz = O=C(OCc1ccccc1)*

T1 sequence (P9WHT9 58-291): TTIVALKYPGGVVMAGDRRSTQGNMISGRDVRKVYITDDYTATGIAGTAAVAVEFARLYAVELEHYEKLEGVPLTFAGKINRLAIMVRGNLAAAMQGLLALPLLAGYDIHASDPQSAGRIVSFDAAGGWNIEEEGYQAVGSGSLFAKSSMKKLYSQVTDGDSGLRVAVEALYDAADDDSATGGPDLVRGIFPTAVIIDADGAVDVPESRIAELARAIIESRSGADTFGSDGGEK
T1 sequence (P9WHU1 whole entry partner): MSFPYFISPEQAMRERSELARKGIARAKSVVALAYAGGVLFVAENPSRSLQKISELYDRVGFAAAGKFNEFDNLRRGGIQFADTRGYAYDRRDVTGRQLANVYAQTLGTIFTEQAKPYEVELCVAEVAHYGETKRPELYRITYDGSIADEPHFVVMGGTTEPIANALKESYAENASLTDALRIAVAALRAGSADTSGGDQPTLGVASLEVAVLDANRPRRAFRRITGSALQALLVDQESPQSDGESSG

One assay addresses T1, Mtb proteasome (Mycobacterium tuberculosis, UniProt P9WHT9).
T1 construct: Proteasome activity of the supernatants was assessed; endogenous in cells; host or cells: Mycobacterium tuberculosis H37Ra (crude lysate supernatant)
As to the kind of experiment: biochemical.
Details: not given
As for `CC(C)C[C@@H](C=O)NC(=O)[C@H](CC(C)C)NC(=O)[C@H](CC(C)C)NC(=O)OCc1ccccc1` [MG132, reference compound] (Cbz-Leu-Leu-Leu-aldehyde), the half-inhibitory concentration (IC50) (in general, the concentration that inhibits the measured activity by half) is 28 µM.

Take `C=C1C(=O)O[C@@H]2C[C@@]3(C)CCC[C@H](C)C3=C[C@H]12` [alantolactone]: the “IA: inhibitory activity of Mtb proteasome” value (shortened to “IA: inhibitory activity”) came to 32.12%.

For the compound `COc1cc(C)c(C(=O)Oc2cc(C)c(C(=O)O)c(O)c2C)c(OC)c1C` [diffractic acid], the “IA: inhibitory activity” value worked out at 0.00%.

Turning to martin hydrochloride, the “IA: inhibitory activity” value amounted to 43.66%.

Consider `C=C1C[C@@]2(O)O[C@@]3(C[C@H]2C(C)C)[C@@H](C)CC[C@@H]13` [curcumol], for which the “IA: inhibitory activity” value is reported as 34.66%.

Turning to `C=C1CC[C@@H]2[C@](C)(CO)[C@H](O)CC[C@@]2(C)[C@@H]1/C=C/C1=CCOC1=O` [dehydroandrographolide], the “IA: inhibitory activity” value was found to be 32.67%.

Regarding `C=C(C)[C@@H]1CC[C@]2(CO)CC[C@]3(C)[C@H](CC[C@@H]4[C@@]5(C)CC[C@H](O)C(C)(C)[C@@H]5CC[C@]43C)[C@@H]12` [betulinol], the “IA: inhibitory activity” value was found to be 6.52%.

As for `COc1ccc2cc1Oc1ccc(cc1)C[C@H]1c3cc(c(OC)cc3CCN1C)Oc1c(OC)c(OC)cc3c1[C@H](C2)N(C)CC3` [hanfangchin A], the “IA: inhibitory activity” value was found to be 0.00%.

As to `C=C[C@H]1[C@H](O[C@@H]2O[C@H](CO)[C@@H](O)[C@H](O)[C@H]2O)OC=C2C(=O)OCC[C@]21O` [swertiamain], the “IA: inhibitory activity” value is 14.39%.

As for asiaticoside, the “IA: inhibitory activity” value is reported as 0.00%.

Compound `O=c1c(O)c(-c2ccc(O)cc2)oc2cc(O)cc(O)c12` [kaempferol] gave an IC50 of 107 µM.

`COc1c(O[C@@H]2O[C@H](C(=O)O)[C@@H](O)[C@H](O)[C@H]2O)cc(O)c2c(=O)cc(-c3ccccc3)oc12` [wogonoside]: the “IA: inhibitory activity” value was 59.01%.

As for `COc1cc2ccc(=O)oc2c(O[C@@H]2O[C@H](CO)[C@@H](O)[C@H](O)[C@H]2O)c1O` [fraxin], the “IA: inhibitory activity” value came to 0.00%.

As to `COc1ccc2cc1Oc1ccc(cc1)C[C@H]1c3cc(c(OC)cc3CCN1C)Oc1c(O)c(OC)cc3c1[C@H](C2)N(C)CC3` [hanfangchin B], the “IA: inhibitory activity” value is 0.00%.

In the case of `O=c1cc(-c2ccccc2)oc2cc(O)c(O)c(O)c12` [baicalein], the 50% inhibitory concentration (IC50) came out at 45.7 µM.

Regarding `COC(=O)c1c2c(c3ccccc3c1O)OC(C)(C)C=C2` [rubimaillin], the “IA: inhibitory activity” value turned out to be 46.37%.

Turning to silmyarin, the “IA: inhibitory activity” value is 0.00%.

Staying with this assay, now noted: 0.5 h, read-out: IA: inhibitory activity of Mtb proteasome.
`C=C[C@@H]1C2=CCOC(=O)C2=CO[C@H]1O[C@@H]1O[C@H](CO)[C@@H](O)[C@H](O)[C@H]1O` [gentiopicroside]: the inhibition at 200 µM came to 0%.

Turning to `O=C1c2cccc(O)c2C(=O)c2c(O)cc(CO)cc21` [aloe-emodin], the inhibition at 200 µM amounted to 34.3%.

With `OC[C@H]1O[C@@H](OCCc2ccc(O)cc2)[C@H](O)[C@@H](O)[C@@H]1O` [salidroside], the inhibition at 200 µM came to 34%.

`O=c1c(O)c(-c2ccc(O)c(O)c2)oc2cc(O)cc(O)c12` [quercetin]: the inhibition at 200 µM is more than 65%.

As for `CC(C)=CCOc1c2occc2cc2ccc(=O)oc12` [imperatorin], the inhibition at 200 µM is 15.9%.

With `O=c1c(-c2ccc(O)cc2)coc2cc(O)cc(O)c12` [genistein], the inhibition at 200 µM is 45.7%.

For `CC(C)=CC[C@H](O)C1=CC(=O)c2c(O)ccc(O)c2C1=O` [alkannin], the inhibition at 200 µM was determined as 52.4%.

Turning to `O=C1c2cccc(O)c2C(=O)c2c(O)cccc21` [1,8-dihydroxyanthraquinone], the inhibition at 200 µM came out at 36.3%.

For `CC1(C)O[C@H]2CC(=O)OC[C@]23[C@H]2CC[C@@]4(C)[C@H](c5ccoc5)OC(=O)[C@H]5O[C@]54[C@]2(C)C(=O)C[C@@H]13` [limonin], the inhibition at 200 µM turned out to be 1.61%.

Regarding `Nc1ncnc2c1ncn2[C@@H]1O[C@H](CO)C[C@H]1O` [cordycepin], the inhibition at 200 µM was found to be 7.77%.

As for `O=c1c(O)c(-c2ccc(O)cc2)oc2cc(O)cc(O)c12` [kaempferol], the inhibition at 200 µM was more than 65%.

Turning to `O=c1c(-c2ccc(O)cc2)coc2c([C@@H]3O[C@H](CO)[C@@H](O)[C@H](O)[C@H]3O)c(O)ccc12` [puerarin], the inhibition at 200 µM came to 0%.

Regarding `O=C1CCC[C@@H]2[C@H]3CCCN4CCC[C@H](CN12)[C@@H]34` [sophoridine], the inhibition at 200 µM worked out at 11.8%.

Consider `O=C(O)C1=C[C@@H](O)[C@@H](O)[C@H](O)C1` [shikimicacid], for which the inhibition at 200 µM came out at 0%.

As to `C[C@@]12C[C@@]3(O)O[C@@H](O1)[C@]1(COC(=O)c4ccccc4)[C@H]3C[C@@]12O[C@@H]1O[C@H](CO)[C@@H](O)[C@H](O)[C@H]1O` [paeoniflorin], the inhibition at 200 µM is 3.05%.

`O=C1C[C@@H]2OCC=C3CN4CC[C@]56c7ccccc7N1[C@H]5[C@H]2[C@H]3C[C@H]46` [strychnine]: the inhibition at 200 µM was 0%.

As for `O=c1cc(-c2ccccc2)oc2cc(O)c(O)c(O)c12` [baicalein], the inhibition at 200 µM is more than 65%.

`C[C@@H]1O[C@@H](OC[C@H]2O[C@@H](Oc3c(-c4ccc(O)c(O)c4)oc4cc(O)cc(O)c4c3=O)[C@H](O)[C@@H](O)[C@@H]2O)[C@H](O)[C@H](O)[C@H]1O` [rutin]: the inhibition at 200 µM was determined as 0%.

The assay is the same for the next values; noted with them: read-out: IA: inhibitory activity of Mtb proteasome.
Regarding `CC(C)C[C@@H](C=O)NC(=O)[C@H](CC(C)C)NC(=O)[C@H](CC(C)C)NC(=O)OCc1ccccc1` [MG132, reference compound] (Cbz-Leu-Leu-Leu-aldehyde), the inhibition at 100 µM is 79.7%.

For the origin of these results see PMC4203866, “Identification of plant-derived natural products as potential inhibitors of the Mycobacterium tuberculosis proteasome” (BMC Complementary and Alternative Medicine, 2014).
